Laboratory results taken from US20110039819A1, “SUBSTITUTED PHENOXYBENZAMIDES” (priority 2008, published 2011).
Read-outs that look alike come from different tables or passages of the source.

Target: T1, MEK1 (Homo sapiens, UniProt Q02750)
T1 construct: purchased Millipore 14-420 (GST-MEK1); 14-703 (Cot1); host or cells: Cot1: insect cells (SF21)
Test: MEK1 activation kinase assay (Assay 2, HTRF; Cot1 phosphorylates GST-MEK1)
Format: biochemical
Method: MEK1 Activation Kinase Assay
The kinase Cot1 activates MEK1 by phosphorylating its activation loop. The inhibitory activity of compounds of the present invention on this activation of MEK1 was quantified employing the HTRF assay described in the following paragraphs.
As substrate for the kinase reaction the unactive C-terminally His6-tagged GST-MEK1 fusion protein (Millipore cat. no 14-420) was used.
Then the kinase reaction was started by the addition of 2 μl of a solution of Cot1 in assay buffer and the resulting mixture was incubated for a reaction time of 20 min at 22° C. The concentration of Cot1 in the assay was adjusted depending of the activity of the enzyme lot and was chosen appropriate to have the assay in the linear range, typical enzyme concentrations were in the range of about 2 ng/μl (final conc. in the 5 μl assay volume).
The resulting mixture was incubated 2 h at 22° C. to allow the binding of the phosphorylated GST-MEK1 to the anti-GST-XL665 and the Eu-cryptate labelled anti-phospho-MEK 1/2 antibody. Subsequently the amount of Ser217/Ser221-phosphorylated substrate was evaluated by measurement of the resonance energy transfer from the Eu-Cryptate-labelled anti-phospho-MEK antibody to the anti-GST-XL665.

[1] = mean values from 2 or more measurements, read-out: Assay 2 IC50 values (nanomolar) (MEK1 activation kinase assay) (values are mean values from 2 or more measurements)
[2] = representative example compounds, read-out: IC50 in MEK1 activation kinase assay

T1 sequence (Q02750 whole entry): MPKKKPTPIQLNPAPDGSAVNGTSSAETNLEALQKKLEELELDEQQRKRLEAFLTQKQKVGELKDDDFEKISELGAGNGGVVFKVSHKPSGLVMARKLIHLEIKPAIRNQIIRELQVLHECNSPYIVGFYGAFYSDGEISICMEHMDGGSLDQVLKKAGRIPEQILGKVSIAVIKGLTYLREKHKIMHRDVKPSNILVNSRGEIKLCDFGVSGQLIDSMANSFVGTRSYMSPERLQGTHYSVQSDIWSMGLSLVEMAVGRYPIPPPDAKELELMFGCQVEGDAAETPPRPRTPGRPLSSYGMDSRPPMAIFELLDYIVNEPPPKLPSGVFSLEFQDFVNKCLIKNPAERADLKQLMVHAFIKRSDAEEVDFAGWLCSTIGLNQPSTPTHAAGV

Compound	IC50 [1]	IC50 [2]
CC(C)(O)C(O)CCOc1cc(F)cc(Nc2ccc(I)cc2F)c1C(N)=O (single isomer, unassigned) [Example 6.3, 2-(3,4-Dihydroxy-4-methyl-pentyloxy)-4-fluoro-6-(2-fluoro-4-iodo-phenylamino)-benzamide]	30.6 nM	
CC(C)(O)C(O)CCOc1cc(F)cc(Nc2ccc(I)cc2F)c1C(N)=O (single isomer, unassigned) [Example 6.4, 2-(3,4-Dihydroxy-4-methyl-pentyloxy)-4-fluoro-6-(2-fluoro-4-iodo-phenylamino)-benzamide]	29.5 nM	
CC(O)(CO)CCOc1cc(F)cc(Nc2ccc(I)cc2F)c1C(N)=O (single isomer, unassigned) [Example 6.5, 2-(3,4-Dihydroxy-3-methyl-butoxy)-4-fluoro-6-(2-fluoro-4-iodo-phenylamino)-benzamide]	172 nM	
CC(O)(CO)CCOc1cc(F)cc(Nc2ccc(I)cc2F)c1C(N)=O (single isomer, unassigned) [Example 6.6, 2-(3,4-Dihydroxy-3-methyl-butoxy)-4-fluoro-6-(2-fluoro-4-iodo-phenylamino)-benzamide]	80.3 nM	
CN(C)S(=O)(=O)Nc1cccc(Oc2cc(F)cc(Nc3ccc(I)cc3F)c2C(N)=O)c1 [Example 2.1, 2-[3-[[(dimethylamino)sulfonyl]amino]phenoxy]-4-fluoro-6-[(2-fluoro-4-iodophenyl)amino]-benzamide]	21.8 nM	
CN(C)S(=O)(=O)Nc1cccc(Oc2cc(F)cc(Nc3ccc(I)cc3)c2C(N)=O)c1 [Example 2.16, 2-{3-[(dimethylsulfamoyl)amino]phenoxy}-4-fluoro-6-[(4-iodophenyl)amino] benzamide]	47.3 nM	< 1000 nM
Cc1cc(I)ccc1Nc1cc(F)cc(Oc2cccc(NS(=O)(=O)N(C)C)c2)c1C(N)=O [Example 2.17, 2-{3-[(dimethylsulfamoyl)amino]phenoxy}-4-fluoro-6-[(4-iodo-2-methylphenyl)amino] benzamide]	39.8 nM	< 1000 nM
CC(C)(C)OC(=O)Nc1cccc(Oc2c(F)c(F)c(F)c(Nc3ccc(I)cc3F)c2C(N)=O)c1 [Example 2.19, {3-[2-Carbamoyl-4,5,6-trifluoro-3-(2-fluoro-4-iodo-phenylamino)-phenoxy]-phenyl}-carbamic acid tert-butyl ester]	152 nM	< 1000 nM
CN(C)S(=O)(=O)Nc1cccc(Oc2c(F)c(F)c(F)c(Nc3ccc(I)cc3F)c2C(N)=O)c1 [Example 2.20, 2-{3-[(dimethylsulfamoyl)amino]phenoxy}-3,4,5-trifluoro-6-[(2-fluoro-4-iodophenyl)amino]-benzamide]	16.5 nM	< 1000 nM
CC(=O)Nc1ccc(Oc2cc(F)cc(Nc3ccc(I)cc3F)c2C(N)=O)cc1 [Example 4.5, 2-(4-Acetylamino-phenoxy)-4-fluoro-6-(2-fluoro-4-iodo-phenylamino)-benzamide]		< 1000 nM
CNC(=O)c1c(Nc2ccc(I)cc2F)cc(F)cc1Oc1cccc(NS(=O)(=O)N(C)C)c1 [Example 4.17, 2-[3-[[(dimethylamino)sulfonyl]amino]phenoxy]--4-fluoro-6-[(2-fluoro-4-iodophenyl)amino]-N-methyl-benzamide]	61.3 nM	
CN(C)S(=O)(=O)Nc1cccc(Oc2cc(F)cc(Nc3ccc(I)cc3F)c2C(=O)NCCO)c1 [Example 4.18, 2-[3-[[(dimethylamino)sulfonyl]amino]phenoxy]--4-fluoro-6-[(2-fluoro-4-iodophenyl)amino]-N-(2-hydroxy-ethyl)-benzamide]	69.9 nM	
CN(C)S(=O)(=O)Nc1cccc(Oc2cc(F)cc(Nc3ccc(I)cc3F)c2C(=O)NCCCO)c1 [Example 4.19]	80.1 nM	
C[C@H](CO)NC(=O)c1c(Nc2ccc(I)cc2F)cc(F)cc1Oc1cccc(NS(=O)(=O)N(C)C)c1 [Example 4.20, 2-[3-[[(dimethylamino)sulfonyl]amino]phenoxy]--4-fluoro-6-[(2-fluoro-4-iodophenyl)amino]-N-((R)-2-hydroxy-1-methyl-ethyl)-benzamide]	89.3 nM	
C[C@@H](CO)NC(=O)c1c(Nc2ccc(I)cc2F)cc(F)cc1Oc1cccc(NS(=O)(=O)N(C)C)c1 [Example 4.21, 2-[3-[[(dimethylamino)sulfonyl]amino]phenoxy]--4-fluoro-6-[(2-fluoro-4-iodophenyl)amino]-N-((S)-2-hydroxy-1-methyl-ethyl)-benzamide]	248 nM	
C[C@@H](O)CNC(=O)c1c(Nc2ccc(I)cc2F)cc(F)cc1Oc1cccc(NS(=O)(=O)N(C)C)c1 [Example 4.22, 2-[3-[[(dimethylamino)sulfonyl]amino]phenoxy]--4-fluoro-6-[(2-fluoro-4-iodophenyl)amino]-N-((R)-2-hydroxy-propyl)-benzamide]	163 nM	
C[C@H](O)CNC(=O)c1c(Nc2ccc(I)cc2F)cc(F)cc1Oc1cccc(NS(=O)(=O)N(C)C)c1 [Example 4.23, 2-[3-[[(dimethylamino)sulfonyl]amino]phenoxy]--4-fluoro-6-[(2-fluoro-4-iodophenyl)amino]-N-((S)-2-hydroxy-propyl)-benzamide]	132 nM	
CN1CCC[C@H]1COc1cc(F)cc(Nc2ccc(I)cc2F)c1C(N)=O [Example 4.25, 4-Fluoro-2-(2-fluoro-4-iodo-phenylamino)-6-((S)-1-methyl-pyrrolidin-2-ylmethoxy)-benzamide]	182 nM	< 1000 nM
Cn1cc(Oc2cc(F)cc(Nc3ccc(I)cc3F)c2C(N)=O)cn1 [Example 4.27, 4-Fluoro-2-(2-fluoro-4-iodo-phenylamino)-6-(1-methyl-1H-pyrazol-4-yloxy)-benzamide]	258 nM	< 1000 nM
NC(=O)c1c(Nc2ccc(I)cc2F)cc(F)cc1Oc1cccc(CS(N)(=O)=O)c1 [Example 4.33, 4-Fluoro-2-(2-fluoro-4-iodo-phenylamino)-6-(3-sulfamoylmethyl-phenoxy)-benzamide]	31.5 nM	< 1000 nM
CS(=O)(=O)Cc1cccc(Oc2cc(F)cc(Nc3ccc(I)cc3F)c2C(N)=O)c1 [Example 4.34, 4-Fluoro-2-(2-fluoro-4-iodo-phenylamino)-6-(3-methane-sulfonylmethyl-phenoxy)-benzamide]	23.5 nM	< 1000 nM
NC(=O)c1cccc(Oc2cc(F)cc(Nc3ccc(I)cc3F)c2C(N)=O)c1 [Example 4.37, 2-(3-Carbamoyl-phenoxy)-4-fluoro-6-(2-fluoro-4-iodo-phenylamino)-benzamide]	26.6 nM	< 1000 nM
CCCNS(=O)(=O)Nc1cccc(Oc2cc(F)cc(Nc3ccc(I)cc3F)c2C(N)=O)c1 [Example 5.2, 2-[3-[[(propylamino)sulfonyl]amino]phenoxy]-4-fluoro-6-[(2-fluoro-4-iodophenyl)amino]-benzamide]	24 nM	
CC(=O)Nc1cccc(Oc2cc(F)cc(Nc3ccc(I)cc3F)c2C(N)=O)c1 [Example 5.3, 2-(3-Acetylamino-phenoxy)-4-fluoro-6-(2-fluoro-4-iodo-phenylamino)-benzamide]	28.1 nM	< 1000 nM
NC(=O)c1c(Nc2ccc(I)cc2F)cc(F)cc1Oc1cccc(NS(N)(=O)=O)c1 [Example 5.7, 2-[3-[[(amino)sulfonyl]amino]phenoxy]-4-fluoro-6-[(2-fluoro-4-iodophenyl)amino]-benzamide]	18.5 nM	
